{"source": "ChEMBL document CHEMBL1122753", "about": "“Interaction of N4-hydroxy-2'-deoxycytidylic acid with thymidylate synthetase” (J Med Chem, 1984)", "key": {"[1]": {"target": "T1, Thymidylate synthase (Homo sapiens, UniProt P04818)", "assay": "The apparent association constant (Ki) with dTMP synthetase enzyme from chick embryo in the absence of CH2-H4 folate was evaluated; Active", "set-up": "species or system Gallus gallus", "conditions": "target entry is the homologue from another species"}, "[2]": {"target": "T2, Thymidylate synthase (Lactobacillus casei, UniProt P00469)", "T2 sequence (P00469 whole entry)": "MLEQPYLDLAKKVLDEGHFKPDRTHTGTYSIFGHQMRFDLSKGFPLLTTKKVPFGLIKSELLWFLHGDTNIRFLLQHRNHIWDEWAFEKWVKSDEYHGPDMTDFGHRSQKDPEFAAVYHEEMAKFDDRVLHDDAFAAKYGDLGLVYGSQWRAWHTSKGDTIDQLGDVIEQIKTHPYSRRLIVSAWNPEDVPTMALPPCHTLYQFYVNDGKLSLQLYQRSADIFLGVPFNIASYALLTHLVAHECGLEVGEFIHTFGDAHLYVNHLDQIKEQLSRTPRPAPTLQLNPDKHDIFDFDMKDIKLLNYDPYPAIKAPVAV", "assay": "The apparent association constant (Ki) with dTMP synthetase enzyme from chick embryo in the absence of CH2-H4 folate was evaluated", "set-up": "species or system Lacticaseibacillus casei"}, "[3]": {"target": "T1, Thymidylate synthase", "assay": "Compound (4.5 uM) was evaluated for the percent binding to the excess dTMP synthetase (3.9 uM and 7.8 uM sites) enzyme from chick embryo, […] of CH2-H4 folate. This complex was incubated 25 degrees Celsius for 2 hours.", "conditions": "Gallus gallus; target entry is the homologue from another species"}, "[4]": {"target": "T1, Thymidylate synthase", "assay": "Compound was evaluated for time-dependent loss of activity with use of 15 nM of dTMP synthetase enzyme from chick embryo in the presence of […] of CH2-H4 folate at about 20 seconds", "type": "functional", "conditions": "Gallus gallus; target entry is the homologue from another species"}, "[5]": {"target": "T1, Thymidylate synthase", "assay": "Compound was evaluated for the dissociation of the radiolabeled N4-HOdCMP by competitive binding to the excess dTMP synthetase; Active", "conditions": "Gallus gallus"}, "[6]": {"target": "T1, Thymidylate synthase", "assay": "The apparent association constant (Ki) with dTMP synthetase enzyme from chick embryo in the absence of CH2-H4 folate was evaluated using conventional spectrophotometric assay; Active", "set-up": "species or system Gallus gallus"}}, "note": "The source made the active and inactive calls. The rule behind the calls is not given here.", "data": [{"smiles": "Cc1cn([C@H]2C[C@H](O)[C@@H](COP(=O)(O)O)O2)c(=O)[nH]c1=O", "note": "[THYMIDINE MONOPHOSPHATE]", "values": [{"measurement": "Ki", "setting": "[1]", "result": "Active"}]}, {"smiles": "O=c1nc(NO)ccn1[C@H]1C[C@H](O)[C@@H](COP(=O)(O)O)O1", "values": [{"measurement": "Ki", "setting": "[2]", "result": 8, "unit": "µM"}, {"measurement": "Binding", "setting": "[3]", "result": 90, "unit": "%"}, {"measurement": "Loss of activity", "setting": "[4]", "result": 50, "unit": "%"}, {"measurement": "Dissociation", "setting": "[5]", "result": "Active"}]}, {"smiles": "O=c1ccn([C@H]2C[C@H](O)[C@@H](COP(=O)(O)O)O2)c(=O)[nH]1", "note": "[DEOXYURIDINE MONOPHOSPHATE]", "values": [{"measurement": "Ki", "setting": "[6]", "result": "Active"}]}]}
